Source: ChEMBL document CHEMBL5244207, “Phenanthrenes: A Promising Group of Plant Secondary Metabolites” (J Nat Prod, 2018)
pEC50, pIC50: −log10 of the molar value. In brackets after ≈: the same amount, converted by molar mass. Several values for one entry are separate records, joined by “and”; a condition that tells them apart may be missing. Equal entries are not always repeated.

How the values were obtained:
[1] = Antioxidant activity assessed as DPPH radical scavenging activity; assay type: functional; details: for pIC50: read-out: IC50
CT26.WT = test: Cytotoxicity against mouse CT26.WT cells by MTT assay; assay type: functional, cell-based
CHO = test: Cytotoxicity against CHO cells by MTT assay; assay type: functional, cell-based; details: Cricetulus griseus
MeWo = test: Cytotoxicity against human MeWo cells by MTT assay; assay type: functional, cell-based
Pichia kudriavzevii = test: Antifungal activity against Candida krusei assessed as inhibition of fungal growth measured after 48 hrs by CLSI based agar dilution method; assay type: functional, organism-based
B16-F10 = test: Cytotoxicity against mouse B16-F10 cells by MTT assay; assay type: functional, cell-based
[2] = Antioxidant activity assessed as ABTS radical scavenging activity; assay type: functional
Mus musculus [3] = test: Anxiolytic activity in mouse assessed as number of entries in open arm at 5 mg/kg, po measured after 60 mins by elevated plus maze test; assay type: functional; details: 1 h
Mus musculus [4] = test: Anxiolytic activity in mouse assessed as increase in time spent in open arm at 5 mg/kg, po measured after 60 mins by elevated plus maze test; assay type: functional; details: 1 h
RAW264.7 [5] = test: Antiinflammatory activity in mouse RAW264.7 cells assessed as reduction in LPS-induced nitric oxide production; assay type: functional, cell-based
RAW264.7 [6] = test: Antiinflammatory activity in mouse RAW 264.7 cells assessed as inhibition of LPS-induced nitric oxide production measured after 48 hrs by Griess reagent assay; assay type: functional, cell-based; details: RAW264.7, 48 h
HL-60 = test: Cytotoxicity against human HL-60 cells assessed as reduction in cell viability by MTT assay; assay type: functional, cell-based
K562 = test: Induction of cell cycle arrest in human K562 cells measured for 24 hrs; assay type: functional, cell-based; details: K562, 24 h
PC-3 = test: Induction of cell cycle arrest in human PC-3 cells measured for 24 hrs; assay type: functional, cell-based; details: PC-3, 24 h
BV-2 [7] = test: Antiinflammatory activity in mouse BV2 cells assessed as reduction in LPS-induced nitric oxide production at 10 uM relative to control; assay type: functional; parameters: scale not given: the % may be the effect or the level left
BV-2 [8] = test: Antiinflammatory activity in mouse BV2 cells assessed as reduction in LPS-induced nitric oxide production; assay type: functional, cell-based
[9] = Antioxidant activity assessed as hydrogen peroxide scavenging activity; assay type: functional
SGC-7901 = test: Cytotoxicity against human SGC-7901 cells assessed as reduction in cell viability; assay type: functional, cell-based; details: Homo sapiens, SGC-7901; read-out: IC50
Bel-7402 = test: Cytotoxicity against human Bel-7402 cells assessed as reduction in cell viability; assay type: functional, cell-based
Staphylococcus aureus [10] = test: Antibacterial activity against Staphylococcus aureus ATCC 43300 assessed as inhibition of bacterial growth; assay type: functional, organism-based
Staphylococcus aureus [11] = test: Antibacterial activity against Staphylococcus aureus ATCC 29213 assessed as inhibition of bacterial growth; assay type: functional, organism-based
Staphylococcus aureus [12] = test: Antibacterial activity against Staphylococcus aureus ATCC 25923 assessed as inhibition of bacterial growth; assay type: functional, organism-based
[13] = Inhibition of H2O2-induced ROS production in human HaCaT cells; assay type: functional, cell-based
HaCaT = test: Antiinflammatory activity against human HaCaT cells assessed as inhibition of PGE2 production; assay type: functional, cell-based

Compound: COc1c(O)cc2c(c1OC)-c1ccc(O)cc1CC2 [ERIANTHRIDIN]
- pIC50 [1]: 4.83

Compound: COc1cc(O)c2c(c1)CCc1cc(O)c(-c3c(OC)cc(O)c4c3ccc3cc(O)ccc34)cc1-2
- IC50 [1]: 12.9 µg/mL

Compound: COc1cc(O)c2c(c1)CCc1cccc(O)c1-2
- pEC50 [1]: 5.00
- pIC50 [1]: 4.67

Compound: COc1cc2c(c(O)c1C)CCc1c-2ccc(O)c1C=O
- IC50 (CT26.WT): 4 µg/mL (≈ 14.1 µM)
- IC50 (CHO): 6 µg/mL (≈ 21.1 µM)
- IC50 (MeWo): 5 µg/mL (≈ 17.6 µM)
- IC50 (Pichia kudriavzevii): 31.3 µg/mL (≈ 110 µM)
- IC50 (B16-F10): 8 µg/mL (≈ 28.1 µM)

Compound: OC(Cn1cncn1)(Cn1cncn1)c1ccc(F)cc1F [FLUCONAZOLE]
- IC50 (Pichia kudriavzevii): 32 µg/mL (≈ 104 µM)

Compound: C=Cc1c(C)c(O)c(-c2c(O)c(C)c(C=C)c3c2ccc2c(C)c(O)ccc23)c2ccc3c(C)c(O)ccc3c12
- Activity [2]: 85.2%

Compound: CN1C(=O)CN=C(c2ccccc2)c2cc(Cl)ccc21 [DIAZEPAM]
- Activity (Mus musculus [3]): 13.6
- Time (Mus musculus [4]): 111.9 s

Compound: COC(C)c1cc(O)cc2ccc3c(C)c(O)ccc3c12 (stereo not drawn)
- pIC50 (RAW264.7 [5]; Mus musculus, RAW264.7): 4.95
- pIC50 (RAW264.7 [5]; raw264.7): 4.79

Compound: COc1cc(O)c2c(c1)CCc1cc(O)ccc1-2 [LUSIANTHRIDIN]
- pIC50 (RAW264.7 [6]): 5.34
- pEC50 [1]: 4.65
- pIC50 [1]: 4.21 and 4.65

Compound: COC1=C(OC)C(=O)c2c(ccc3cccc(O)c23)C1=O
- pIC50 (HL-60): 5.33

Compound: COc1c(O)cc2c3c1COc1cc(O)c(Cc4ccc(O)cc4)c(c1-3)CC2
- pIC50 (RAW264.7 [5]; Mus musculus, RAW264.7): 4.68

Compound: COC1=CC(=O)c2ccc3cc(OC)cc(O)c3c2C1=O [DENBINOBIN]
- pIC50 (K562): 5.74
- pIC50 (PC-3): 5.12

Compound: Cc1c(O)cc2c3c1CCc1c(C)c(O)cc(c1-3)C2C
- Activity (BV-2 [7]): 11.2%

Compound: OC[C@H]1O[C@@H](O[C@H]2[C@H](O)[C@@H](O)[C@H](Oc3ccc4ccc5ccc(O)cc5c4c3O)O[C@@H]2CO)[C@H](O)[C@@H](O)[C@@H]1O
- IC50 (BV-2 [8]): 15.3 µg/mL

Compound: Cc1c(O)ccc2c1CCc1cc(O)cc(CO)c1-2
- pIC50 (RAW264.7 [5]; Mus musculus, RAW264.7): 4.80

Compound: COc1cc(O)c2c(c1)CCc1cc(O)c(-c3c(OC)cc(O)c4c3CCc3cc(O)ccc3-4)cc1-2
- pEC50 [1]: 4.57

Compound: COc1cc2cc(O)cc(OC)c2c2c(O)cccc12
- pIC50 (RAW264.7 [5]; Mus musculus, RAW264.7): 4.62
- pIC50 [9]: 4.72
- pIC50 [1]: 5.17

Compound: COC1=CC(=O)C2=C(CCc3cccc(O)c32)C1=O [EPHEMERANTHOQUINONE B]
- pIC50 (HL-60): 5.52
- IC50 (SGC-7901): 2.9 µg/mL (≈ 11.3 µM)
- IC50 (Bel-7402): 1.8 µg/mL (≈ 7.02 µM)

Compound: O=c1[nH]cc(F)c(=O)[nH]1 [FLUOROURACIL]
- IC50 (CT26.WT): 5 µg/mL (≈ 38.4 µM)
- IC50 (CHO): 12 µg/mL (≈ 92.3 µM)
- IC50 (MeWo): 8 µg/mL (≈ 61.5 µM)
- IC50 (B16-F10): 4 µg/mL (≈ 30.8 µM)

Compound: COc1cc(O)c(-c2c(O)cc(OC)c3c2ccc2cc(O)ccc23)c2ccc3cc(O)ccc3c12 [CIRRHOPETALANTHIN]
- IC50 (Staphylococcus aureus [10]): 6.25 µg/mL (≈ 13.1 µM)
- IC50 (Staphylococcus aureus [11]): 6.25 µg/mL (≈ 13.1 µM)
- IC50 (Staphylococcus aureus [12]): 6.25 µg/mL (≈ 13.1 µM)

Compound: COc1cc(O)c2c(c1)CCc1c-2ccc(OC)c1O
- pEC50 [1]: 4.56
- pIC50 [1]: 4.56

Compound: COc1cc2c(c(OC)c1O)-c1ccc(O)cc1CC2 [FLAVANTHRIDIN]
- pIC50 [9]: 5.70

Compound: COc1cc(O)c2c(c1Cc1ccc(O)cc1)CCc1cc(O)ccc1-2
- IC50 [1]: 12.2 µg/mL

Compound: COc1cc2c(cc1O)CCc1cc(O)cc(OC)c1-2
- pIC50 [13]: 5.03
- pIC50 [9]: 7.40
- pIC50 (BV-2 [8]): 4.71
- pIC50 (HaCaT): 4.71
- pIC50 [1]: 5.05

Compound: C[C@@H]1O[C@@H](OC[C@H]2O[C@@H](Oc3c(-c4ccc(O)c(O)c4)oc4cc(O)cc(O)c4c3=O)[C@H](O)[C@@H](O)[C@@H]2O)[C@H](O)[C@H](O)[C@H]1O [RUTIN]
- IC50 [1]: 2.5 µg/mL

Compound: COc1cc(O)cc2c1-c1ccc(O)cc1CC2
- pIC50 [9]: 7.10
- pIC50 [1]: 4.78 and 5.07

Compound: COc1cc(O)c2c(c1)CCc1cc(O)cc(O)c1-2
- pIC50 [1]: 4.99

Compound: COc1cc(O)c(-c2cc3c(cc2O)CCc2cc(OC)cc(O)c2-3)c(CCc2cccc(O)c2)c1
- pEC50 [1]: 4.25

Compound: COc1c(O)cc2c3c1COc1cc(O)cc(c1-3)CC2
- pIC50 [13]: 5.06
- pIC50 [9]: 7.52
- pIC50 (HaCaT): 4.91
- pEC50 [1]: 5.06
- pIC50 [1]: 5.08
